# In PubChem BioAssay (NCI):
#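 1) Cells in 96-well plates. 2) Compound, 48 h, 5 concentrations. 3) Linear interpolation between surrounding doses. 4) Unreached endpoint = highest concentration. Abbreviation: GI50, concentration required for 50% inhibition of growth. TGI is the concentration that stops growth completely.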
# Test system: UO-31 renal
# Experiment: NCI tumour cell line growth inhibition, 48 h
Structure (SMILES),TGI [µM],GI50 [µM]
Nc1ccc2[nH]cc(CCC(=O)O)c2c1,> 100,–
Cc1cccc(C(C)C)c1NC(=O)C(=O)C(C(=O)c1ccccc1F)C1OC(=O)c2ccccc21 (stereo not given),38.3,–
Cc1ccc(Nc2nnc(-c3ccc4c(c3)OCO4)o2)c(C)c1,> 100,–
Cc1cccc(C)c1NC(=O)C(=O)CC(=O)c1cccc([N+](=O)[O-])c1,> 100,–
Cc1ccc(S(=O)(=O)NC(=O)NC2=NC(C)(C)N(c3ccc(Cl)c(Cl)c3)C(N)=N2)cc1,> 100,–
S=C1SC2=Nc3ccccc3CN2C2=NCCN12,> 100,> 100
CC1=C(c2cc(C(=O)Nc3ccc(Cl)cc3)nc(=S)[nH]2)Sc2ccccc2N1,> 100,–
O=C(O)CN(c1ccccc1)S(=O)(=O)c1ccc([N+](=O)[O-])cc1,> 100,–
CC1=C(C(=O)NNS(=O)(=O)c2ccc(C)cc2)CC(C(=O)NNS(=O)(=O)c2ccc(C)cc2)=C(C)N1,> 100,–
Cc1cc(C)n(-c2nnc3n2N=C(c2ccc(-c4ccccc4)cc2)CS3)n1,> 100,3.38
[F][Sn]([F])([c]1ccccc1)[c]1ccccc1,3.34,1.92
N#CC(C(=O)CCC(=O)Nc1cccc(C(F)(F)F)c1)c1ccc(Cl)cc1 (stereo not given),> 100,–
Cc1cc(C(C)(C)C)cc(Cc2cc(C(C)(C)C)cc(Cc3cc(C(C)(C)C)cc(C)c3O)c2O)c1O,25.9,–
COC(=O)/C(=C\c1ccc(N(CCC#N)CCC#N)cc1)NC(=O)c1cc([N+](=O)[O-])ccc1Cl,> 100,–
COC1=C(Br)C(=O)c2nc(C)ccc2C1=O,32.4,–
O=C(CSC(c1ccccc1)c1ccccc1)N/N=C/c1ccco1,10.3,2.03
COc1ccc2c3c(Nc4ccc(/C(C)=N/O)cc4)[nH]c4ccccc4c-3c(N=O)c2c1,35.5,18.5
N.N.NCCCCCCCCCN.O=C([O-])CC(=O)[O-].O=C([O-])CC(=O)[O-].[Pt+4].[Pt+4],> 100,> 100
CCN(CC)c1cc2oc3cc(N)cc(=N)c-3nc2cc1C,49,3.38

Structure (SMILES),TGI [µM],GI50 [µM]
CC(=O)OC1C2CCC1C1C2C2(Cl)C(Cl)=C(Cl)C1(Cl)C2(Cl)Cl (stereo not given),25.2,–
CC(C(=O)n1c2ccccc2c2ccccc21)N(c1ccccc1)c1ccccc1 (stereo not given),35.1,–
CCOC(=O)Cn1c(=O)n(C)c(=O)c2c1ncn2Cc1ccccc1,> 100,–
CCCCc1c2c(nc3c1CCC/C3=C\c1ccccc1)/C(=C/c1ccccc1)CCC2,> 100,–
CC(C)(C)OC(=O)N1N=NC2C1C1CC(OCc3ccccc3)(OCc3ccccc3)C2O1 (stereo not given),> 100,–
O=C1CSC(c2ccc(-c3nc4ccccc4s3)cc2)=N1,> 100,74.8
O=C1C(=O)N(c2cc(Cl)ccc2Cl)C(=O)C(=O)C1c1nc2ccccc2o1,> 100,–
O=C(O)C12CC3(C(=O)O)CC(C(=O)O)(CC(C(=O)O)(C1)C3=O)C2=O,> 100,–
CCC(=O)Nc1ccc(N=NN(C)C)cc1,> 100,–
C[C@H]1CCC/C=C/[C@@H]2C[C@H](O)C[C@H]2[C@H](O)[C@@H](SCC(O)CO)CC(=O)O1 (stereo not given in full),71,21.4
O=S1(=O)OCCOS(=O)(=O)C1Cl,> 100,–
COc1cc(C2C(C(=O)Nc3cc(F)c(F)cc3F)=C(C)NC(C)=C2C(=O)Nc2cc(F)c(F)cc2F)ccc1O,35.5,–
Nc1ccc2nc3n(c2c1)C(=O)c1ccccc1-3,> 100,–
CCOc1ccccc1NC(=O)C(=O)Cc1nc2ccccc2s1,> 100,–
CO/N=C(/C)c1cccc(Nc2cc(-c3ccccc3)nc3ccc(OC)cc23)c1,> 100,15.5
Cc1cccc(N=C2NC(=O)C(CC(=O)Nc3cccc(C)c3C)S2)c1 (stereo not given),> 100,–
CN(C)CCSc1nccc(-c2cc3ccccc3s2)n1,47.6,–
O=C(O)CSc1n[nH]c(Cc2ccccc2)n1,> 100,–
O=C1C(Cl)=C(Nc2ccccc2O)C(=O)N1Cc1ccccc1,29.3,15.9

# Test system: RXF 393 renal
# Experiment: NCI tumour cell line growth inhibition, 48 h
Structure (SMILES),TGI [µM],GI50 [µM]
Nc1ccc2[nH]cc(CCC(=O)O)c2c1,> 100,–
Cc1cccc(C(C)C)c1NC(=O)C(=O)C(C(=O)c1ccccc1F)C1OC(=O)c2ccccc21 (stereo not given),27.5,–
Cc1ccc(Nc2nnc(-c3ccc4c(c3)OCO4)o2)c(C)c1,> 100,–
Cc1ccc(S(=O)(=O)NC(=O)NC2=NC(C)(C)N(c3ccc(Cl)c(Cl)c3)C(N)=N2)cc1,> 100,–
S=C1SC2=Nc3ccccc3CN2C2=NCCN12,80.4,23.3
CC1=C(c2cc(C(=O)Nc3ccc(Cl)cc3)nc(=S)[nH]2)Sc2ccccc2N1,> 100,–
O=C(O)CN(c1ccccc1)S(=O)(=O)c1ccc([N+](=O)[O-])cc1,> 100,–
CC1=C(C(=O)NNS(=O)(=O)c2ccc(C)cc2)CC(C(=O)NNS(=O)(=O)c2ccc(C)cc2)=C(C)N1,> 100,–
Cc1cc(C)n(-c2nnc3n2N=C(c2ccc(-c4ccccc4)cc2)CS3)n1,6.51,2.08
Clc1cc(Cl)cc(Nc2ccc3cc(OCCCN4CCOCC4)ccc3n2)c1,3.6,1.51
[F][Sn]([F])([c]1ccccc1)[c]1ccccc1,2.64,0.887
Cc1cc(C(C)(C)C)cc(Cc2cc(C(C)(C)C)cc(Cc3cc(C(C)(C)C)cc(C)c3O)c2O)c1O,6.26,–
COC(=O)/C(=C\c1ccc(N(CCC#N)CCC#N)cc1)NC(=O)c1cc([N+](=O)[O-])ccc1Cl,> 100,–
COC1=C(Br)C(=O)c2nc(C)ccc2C1=O,24.5,–
O=C(CSC(c1ccccc1)c1ccccc1)N/N=C/c1ccco1,3.32,1.25
COc1ccc2c3c(Nc4ccc(/C(C)=N/O)cc4)[nH]c4ccccc4c-3c(N=O)c2c1,0.0372,–
N.N.NCCCCCCCCCN.O=C([O-])CC(=O)[O-].O=C([O-])CC(=O)[O-].[Pt+4].[Pt+4],> 100,> 100

Structure (SMILES),TGI [µM],GI50 [µM]
CCN(CC)c1cc2oc3cc(N)cc(=N)c-3nc2cc1C,26.9,13.1
CC(=O)OC1C2CCC1C1C2C2(Cl)C(Cl)=C(Cl)C1(Cl)C2(Cl)Cl (stereo not given),29.3,–
CC(C(=O)n1c2ccccc2c2ccccc21)N(c1ccccc1)c1ccccc1 (stereo not given),28.4,–
CC(C)(C)OC(=O)N1N=NC2C1C1CC(OCc3ccccc3)(OCc3ccccc3)C2O1 (stereo not given),> 100,–
O=C1CSC(c2ccc(-c3nc4ccccc4s3)cc2)=N1,> 100,28.9
O=C1C(=O)N(c2cc(Cl)ccc2Cl)C(=O)C(=O)C1c1nc2ccccc2o1,> 100,–
O=C(O)C12CC3(C(=O)O)CC(C(=O)O)(CC(C(=O)O)(C1)C3=O)C2=O,> 100,–
CCC(=O)Nc1ccc(N=NN(C)C)cc1,> 100,–
C[C@H]1CCC/C=C/[C@@H]2C[C@H](O)C[C@H]2[C@H](O)[C@@H](SCC(O)CO)CC(=O)O1 (stereo not given in full),20.1,4.42
COc1cc(C2C(C(=O)Nc3cc(F)c(F)cc3F)=C(C)NC(C)=C2C(=O)Nc2cc(F)c(F)cc2F)ccc1O,52.2,–
Nc1ccc2nc3n(c2c1)C(=O)c1ccccc1-3,> 100,–
CCOc1ccccc1NC(=O)C(=O)Cc1nc2ccccc2s1,> 100,–
Cc1cccc(N=C2NC(=O)C(CC(=O)Nc3cccc(C)c3C)S2)c1 (stereo not given),> 100,–
CN(C)CCSc1nccc(-c2cc3ccccc3s2)n1,56,–
Cc1nn(C(=O)c2ccc(Cl)cc2)c2c1C(c1ccc(O)cc1)SC(N)=N2 (stereo not given),> 10,–
O=C(O)CSc1n[nH]c(Cc2ccccc2)n1,> 100,–
O=C1C(Cl)=C(Nc2ccccc2O)C(=O)N1Cc1ccccc1,30.7,12.5

# Test system: SW-620 colon
# Experiment: NCI tumour cell line growth inhibition, 48 h
Structure (SMILES),TGI [µM],GI50 [µM]
Nc1ccc2[nH]cc(CCC(=O)O)c2c1,> 100,–
Cc1cccc(C(C)C)c1NC(=O)C(=O)C(C(=O)c1ccccc1F)C1OC(=O)c2ccccc21 (stereo not given),58.9,–
Cc1ccc(Nc2nnc(-c3ccc4c(c3)OCO4)o2)c(C)c1,> 100,–
Cc1cccc(C)c1NC(=O)C(=O)CC(=O)c1cccc([N+](=O)[O-])c1,> 100,–
Cc1ccc(S(=O)(=O)NC(=O)NC2=NC(C)(C)N(c3ccc(Cl)c(Cl)c3)C(N)=N2)cc1,> 100,–
S=C1SC2=Nc3ccccc3CN2C2=NCCN12,> 100,39.8
CC1=C(c2cc(C(=O)Nc3ccc(Cl)cc3)nc(=S)[nH]2)Sc2ccccc2N1,> 100,–
O=C(O)CN(c1ccccc1)S(=O)(=O)c1ccc([N+](=O)[O-])cc1,> 100,–
CC1=C(C(=O)NNS(=O)(=O)c2ccc(C)cc2)CC(C(=O)NNS(=O)(=O)c2ccc(C)cc2)=C(C)N1,> 100,–
Cc1cc(C)n(-c2nnc3n2N=C(c2ccc(-c4ccccc4)cc2)CS3)n1,> 100,3.41
